For series [1] the following is noted: stomatitis, infections, rash, fatigue, diarrhoea, oedema, abdominal pain, nausea, fever, asthenia, cough, headache, decreased appetite; cited from earlier work.
A further series deals with Miapaca. Nature of the series: Drug combination assay (MTT, CalcuSyn) of Rad001 and CBD in Miapaca. Format: cell-based, Homo sapiens. On the procedure: For the study of the synergism between Rad001 and CBD on pancreatic cell lines Miapaca was tested, the cells were seeded in 96-multiwell plates at the density of 3.8 10^3 cells/well. After 24 hr incubation at 37° C., the cells were treated with different concentrations of Rad001 and CBD. Different molar ratios between two drugs in different sequences of administration were tested, (Rad001 for 48 h and CBD for 72 h or Rad001 for 72 h and CBD for 48 h and in co-administration for 72 h.
The proliferative response was estimated by colorimetric 3-(4,5 di-methylthiazol-2-yl)-2,5-diphenyltetrazolium bromide (MIT) test. MTT conversion to formazan by metabolically viable cells was monitored by spectrophotometer at an optical density of 570 nm. Each data point represents the average of three separate experiments with each experiment containing four wells. Drug combination studies were based on concentration-effect curves generated as a plot of the fraction of unaffected (surviving) cells versus drug concentration after treatment.
To explore the relative contribution of each agent to the synergism equi-active doses of […] were tested (IC50). Assessment of synergy was performed quantitating drug interaction by Calcusyn computer program (Biosoft, Ferguson, MO). Combination index (CI) values of <1, 1, and >1 indicate synergy, additivity and antagonism, respectively.
Dose reduction index (DRI) representing the measure of how much the dose of each drug in a combination may be reduced at a given effect level compared with the doses of each drug alone.
The effects of the pharmacological combination between CBD and RAD001 on the proliferation MIAPACA cell lines, using MTT assay were studied. The data obtained were processed with dedicated program, CalcuSyn (Chou and Talalay, Biosoft, Oregon, USA), which measures synergism.
The specific contribution of CBD and Rad001 on the cytotoxic effect of the combination of drugs was analyzed by calculating the potentiation factor (PF) defined as the ratio of the IC50 of either CBD or Rad001 alone to the IC50 of CBD and Rad001 in combination. A higher PF indicates a greater cytotoxicity.

SMILES strings stand for the structures.

In the case of `CO[C@H]1C[C@@H]2CC[C@@H](C)[C@@](O)(O2)C(=O)C(=O)N2CCCC[C@H]2C(=O)O[C@H]([C@H](C)C[C@@H]2CC[C@@H](OCCO)[C@H](OC)C2)CC(=O)[C@H](C)/C=C(\C)[C@@H](O)[C@@H](OC)C(=O)[C@H](C)C[C@H](C)/C=C/C=C/C=C/1C` [Rad001, Everolimus, reference compound], the “incidence of most common adverse reactions” value in series [1] was no less than 30%. Moreover, in the series with Miapaca (Homo sapiens, MIA PaCa-2, Miapaca, 50% effect level, read-out: Dose of drug alone), the IC50 was 2600 nM. In addition, the DRI50 entry with Miapaca (Miapaca, Rad/CBD combination, dose reduction index) is “Rad 2.1”. Further, the “potentiation factor (PF)” value with Miapaca (ratio of IC50 alone to IC50 of CBD and Rad001 in combination) is 4.

Source of the values: patent US12263139B2, “Use of cannabidiol in the treatment of tuberous sclerosis complex” (Jazz Pharmaceuticals Research UK Limited, priority 2017, dated 2025).
